Source: patent US20090104124A1, “Paramagnetic Complexes with Pendant Crown Compounds Showing Improved Targeting- Specificity as MRI Contrast Agents” (priority 2007, published 2009)

Assays:
[1] = Variable-temperature 17O NMR transverse relaxation (water exchange); format: physicochemical; details: for TM (derived from VT 17O NMR spectroscopy): 25° C., pH 6.9; for exchange lifetime τM of the inner-sphere coordinated water molecules: 298 K (25° C.), 2.12 T
Excerpt: (§1) Measuring the relaxation rates of an abundant nuclear species as a function of the magnetic field over a wide range is called relaxometry. A relaxometry profile is a plot of the nuclear magnetic relaxation rate, usually 1/T1, as a function of the Larmor frequency or the magnetic field. This profile is also called a Nuclear Magnetic Resonance Dispersion (NMRD) profile. Compared with the NMRD profile, the prominent advantage of the ^17O NMR technique is that it allows the accurate determination of the water exchange rate 1/τM. This is a consequence of the oxygen nucleus being closer to the paramagnetic centre when bound in the inner-sphere, wherein the outer-sphere contributions to the relaxation rates are negligibly small. With the help of NMRD profiles, ^17O NMR measurements, and the Soloman-Bloemnergen-Morgan theory, several important parameters, such as τM, τR, τv, Δ^2 and τH, can be measured.
The variable-temperature ^17O NMR measurements were recorded on a JEOL EX-90 (2.1 T) spectrometer that was equipped with a 5 mm probe, by using a D2O external lock. The experimental settings were: spectral width of 10000 Hz, pulse width of 7 μs, acquisition time of 10 ms, 1000 scans, and no sample spinning. Solutions containing 2.6% of ^17O isotope were used. The observed transverse relaxation rates (R2obs^0) were calculated from the signal width at half height.

[2] = 1H NMRD profiles (water proton relaxivity); format: physicochemical; details: for D: 25° C., pH 6.9, fits of NMRD profile and 17O NMR
Excerpt: as §1
Water proton nuclear magnetic resonance dispersion NMRD profile is used to record the longitudinal water proton relaxation rates as a function of magnetic fields. The method is, in principle, sensitive to all of the parameters that influence relaxivity. […] The relaxometer worked under complete control with an absolute uncertainty in 1/T1 of ±2%. The NMRD profiles were measured using 1-2 mM solutions of the complexes.

[3] = system: MIHA cells; experiment: AO/EB staining, laser scanning confocal microscopy of cell morphology; format: cell-based; details: 10 μM, up to 24 h of incubation
Method: MIHA cells in the absence (control) and presence of Gd-DOTA (10 μM), Gd-DO3A (10 μM), and GdL1 (10 μM) incubated at 37° C. and 5% CO2, 95% air in a humidified incubator for 1 h, 2 h, 8 h, and 24 h, respectively.
Based on cell morphology and cell membrane integrity, normal, necrotic, and apoptotic cells can be distinguished using laser confocal microscopy. FIG. 22 gives the cell morphology in the absence and presence of Gd-DOTA (10 μM), Gd-DO3A (10 μM), and GdL1 (10 μM) at various time intervals after the incubation. In the absence or presence of the Gd^3+ complexes, the nuclei of the living cells were stained as bright blue spots in the nucleus.

[4] = 298 K; cited from earlier work
[5] = 20 MHz, 298 K; cited from earlier work
[6] = system: liver parenchyma; experiment: In vivo MRI, hepatic intensity enhancement (T1-weighted); design: species or system male Sprague-Dawley (SD) rats; details: rat
Method: (§2) To study the MRI contrast and biodistribution behavior of gadolinium complexes […] pendant crown ethers, experiments were performed using male Sprague-Dawley (SD) rats that weighted 150-180 g, and were housed at the Wuhan Institute of Physical and Mathematics of the Chinese Academy of Sciences (Wuhan, Hubei Province, China). All procedures conformed to the institutional guidelines for animal welfare. The rat was injected via the femoral vein with 1 mL saline solution of GdL1 in concentrations of 0.1, 0.033, and 0.02 mM/kg, which are the standard dosage, one third and one fifth of the standard dosage used in clinic currently. MR imaging was performed on a 4.7 T Bruker BIO-SPEC-47/30 MRI scanner with a custom spiral surface coil. The animal was scanned in the prone position in the MRI experiment. […] The total duration of the dynamic scanning lasted up to 400 min after the administration, with an image every 4 min. A water tube was placed in the field of view as a phantom reference. The intensity enhancement (IE) of the region of interest (RI) at time point t is expressed by IE=100% (RI(t)-RI(0))/RI(0) where RI(t) corresponds to the normalized signal intensity as measured at time point, t and RI(0) is the normalized signal intensity precontrast.

[7] = complex with Gd^3+; cited from earlier work
[8] = system: MIHA cells; experiment: In vitro cytotoxicity, cell proliferation assay (MTT / XTT-based); details: 1×10^−2 M, 24 h incubation
Method: To further investigate the potential ability of GdL1 as an NMRI contrast agent, its cytotoxicity was measured by MTT assay. The toxicity of GdL1 was determined from the dose-dependence of surviving cells after exposure to this Gd^3+ complex at different time intervals. For comparison, the cytotoxicities of Gd-DOTA and Gd-DO3A were measured under the same conditions.
To evaluate the toxicity of prepared Gd^3+ complexes, a colorimetric assay (XTT-based) for the non-radioactive quantification of cell proliferation was applied. In the cell proliferating process, the added tetrazolium salt XTT was cleaved to a formazan dye by metabolically active cells, and the quantification of cell growth was achieved by the variation of the absorbance at 492 nm. Seed MIHA Cells at a concentration of 5×10^3 cells/well (tissue culture grade, 96 wells, flat bottom) were added to Gd^3+ complexes (0.625-10 mM) in a humidified atmosphere (37° C., 6.5% CO2). Different concentrations of drugs were adjusted by performing serial dilution. The incubation period of the cell culture ranged from 1, 2, 8, and 24 hrs. XTT dye at a concentration of 5 mg/mL (sigma, St. Louis, Mo.) was added, and the plates were incubated for 12 h in a moist chamber at 37° C. The optical density was determined by eluting the dye with dimethyl sulfoxide, and the absorbance was measured at 570 nm. […]

[9] = system: kidney cortex; experiment: In vivo MRI, renal intensity enhancement (T1-weighted); design: species or system male Sprague-Dawley (SD) rats; details: rat, 0.1 mmol/kg
Method: as §2

[10] = Luminescence lifetime measurements of Tb complexes for hydration number q; format: physicochemical; details: for kH2O, absolute emission depopulation rate constant in H2O: pH 6.9 (0.1 M Tris/HCl), 298 K, ±10%; for inner-sphere coordinated (bound) water molecules, luminescent measurements: pH 6.9
Excerpt: As previously mentioned, inner-sphere proton relaxivity is linearly proportional to the number of water molecules q that are directly coordinated to the Gd^3+ center. However, there is a trade-off between the q value and toxicity. […] It is noteworthy that there is no direct method of measuring the hydration number. The two commonly used indirect methods are as follows: (1) Lanthanide-induced shift (LIS) methods (see, Alpoim et al., J. Chem. Soc., Dalton Trans., 1992, 463). For paramagnetic Ln^3+ ions, the plot of the observed ^17O shift in Ln^3+ chelate solution versus the complex concentration gives a straight line, with the slope being proportional to its hydration number. (2) The lanthanide luminescence method. According to the Horrocks equation, the q value can be calculated by the emission rate constants for the depopulation of Tb^3+ or Eu^3+ complexes measured in H2O and D2O (see, Beeby at al., J. Chem. Soc., Perkin Trans. 2, 1999, 493). With this method, the q values of the Gd^3+ complexes in aqueous solution can be measured indirectly by their corresponding Tb^3+ or Eu^3+ complexes, because of the very similar coordination behavior between these three lanthanide ions.
Luminescence lifetime measurements were all obtained on a Perkin-Elmer LS 50B spectrofluorimeter with a 420 nm cut-off filter. The concentration of the complex was 1×10^−5˜1×10^−4 mol dm^−3. The emission of Tb^3+ or EU^3+ complexes was monitored at […]. Gd^3+ is a neighbor of Eu^3+ and Tb^3+ with a nearly identical ionic radius, and thus their chemistries are virtually identical. Therefore, the Horrocks equation for determining the number of coordinated water molecules q for Eu^3+ and Tb^3+ is still valid for the calculation of the q value of Gd^3+. In general, the number of coordinated water molecules q can be determined by the measurement of the luminescent lifetime of the complexes separately in H2O and D2O by application of the Horrocks equation.
qcorr=A(kH2O−kD2O−a)
where k is the constant for depopulation (reciprocal of luminescent lifetime), and A is a proportionality constant that signifies the sensitivity of the lanthanide ion to vibronic quenching by OH oscillators. a is correlation value for the consideration of the outer-sphere water molecules.

## O=C([O-])CN1CCNCCN(CC(=O)[O-])CCN(CC(=O)[O-])CC1.[Gd+3] [Gd-DO3A, reference compound]
[1]
  TM (derived from VT 17O NMR spectroscopy): 160 ns
  exchange lifetime τM of the inner-sphere coordinated water molecules: 160 ns
[2]
  D: 2.24E−5 cm^2s^−1
[3]
  apoptotic or necrotic cells (cell morphology, AO/EB): no obvious apoptotic or necrotic cells were found

## O=C([O-])CN1CCN(CC(=O)[O-])CCN(CC(=O)O)CCN(CC(=O)[O-])CC1.[Gd+3] [Gd-DOTA, reference compound]
[1]
  TM (derived from VT 17O NMR spectroscopy): 300 ns
  exchange lifetime τM of the inner-sphere coordinated water molecules: 245 ns
[2]
  D: 2.24E−5 cm^2s^−1
[3]
  apoptotic or necrotic cells (cell morphology, AO/EB): no obvious apoptotic or necrotic cells were found
[4]
  bound water molecular resident lifetime τM (typical values): about 244 ns
[5]
  relaxivity r1p (typical values): 4.74 mM⁻¹ s⁻¹
[6]; 0.02 mmol/kg (1/5 of standard dose)
  maximal hepatic IE: no remarkable hepatic IE was detected

## O=C([O-])CN(CCN(CC(=O)[O-])CC(=O)O)CCN(CC(=O)[O-])CC(=O)O.[Gd+3] [Gd-DTPA]
[1]
  TM (derived from VT 17O NMR spectroscopy): 250 ns
[2]
  D: 2.24E−5 cm^2s^−1
[7]
  log K (K = formation constant of the metal complex): 24.6
[4]
  bound water molecular resident lifetime τM (typical values): ~303 ns
[5]
  relaxivity r1p (typical values): 4.69 mM⁻¹ s⁻¹

## O=C([O-])CN1CCN(CCN2CCOCCOCCOCCOCC2)CCN(CC(=O)[O-])CCN(CC(=O)[O-])CC1.[Gd+3] [GdL1]
[1]
  TM (derived from VT 17O NMR spectroscopy): 55 ns
  exchange lifetime τM of the inner-sphere coordinated water molecules: 55 ns
[2]
  inner-sphere coordinated water molecules from 1H NMRD profiles: two
  D: 2.24E−5 cm^2s^−1
[8]
  viability of the MIHA cells: not affected obviously
[9]
  renal IE still preserved 250 minutes after injection: 40%
[3]
  apoptotic or necrotic cells (cell morphology, AO/EB): no obvious apoptotic or necrotic cells were found
[6]; 0.03 mmol/kg
  time after injection of maximal hepatic IE: 60 to 100 min
[6]; 0.033 mmol/kg
  hepatic IE on plateau: > 60%
[6]; 0.1 mmol/kg
  resident lifetime in hepatic tissue: > 4 h

## O=C([O-])CN1CCN(CCOCC2COCCOCCOCCOCCO2)CCN(CC(=O)[O-])CCN(CC(=O)[O-])CC1.[Gd+3] (stereo not drawn) [GdL2]
[1]
  TM (derived from VT 17O NMR spectroscopy): 116 ns
  exchange lifetime τM of the inner-sphere coordinated water molecules: 116 ns
[2]; 20 MHz, pH 10.0
  overall relaxivity r1p: 4.21 mM⁻¹ s⁻¹
[2]
  D: 2.24E−5 cm^2s^−1
[6]; 0.1 mmol/kg
  level of hepatic enhancement maintained for more than 4 h: > 60%
  time for which hepatic intensity enhancement was maintained: more than 4 h

## O=C([O-])CN1CCN(CC(=O)[O-])CCN(CC(=O)N2CCOCCOCCN(Cc3ccc4ccccc4n3)CCOCCOCC2)CCN(CC(=O)[O-])CC1.[Gd+3] [GdL3]
[1]
  TM (derived from VT 17O NMR spectroscopy): 246 ns
  exchange lifetime τM of the inner-sphere coordinated water molecules: 246 ns
[2]
  reorientation lifetime τR: 210 ps
  D: 2.24E−5 cm^2s^−1
[2]; pH 7.5
  q from NMRD profile: 1
[6]; 0.1 mmol/kg
  level of hepatic enhancement maintained for more than 4 h: about 50%
  time for which hepatic intensity enhancement was maintained: more than 4 h

## O=C([O-])CN1CCNCCN(CC(=O)[O-])CCN(CC(=O)[O-])CC1.[Tb+3] [Tb-DO3A, reference compound]
[10]
  kH2O, absolute emission depopulation rate constant in H2O: 0.88 ms^−1

## O=C([O-])CN1CCN(CC(=O)[O-])CCN(CC(=O)[O-])CCN(CC(=O)[O-])CC1.[Tb+3] [Tb-DOTA, reference compound]
[10]
  kH2O, absolute emission depopulation rate constant in H2O: 0.48 ms^−1

## O=C([O-])CN1CCN(CCN2CCOCCOCCOCCOCC2)CCN(CC(=O)[O-])CCN(CC(=O)[O-])CC1.[Tb+3] [TbL1]
[10]
  inner-sphere coordinated (bound) water molecules, luminescent measurements: two
  kH2O, absolute emission depopulation rate constant in H2O: 0.72 ms^−1

## O=C([O-])CN1CCN(CC(=O)[O-])CCN(CC(=O)N2CCOCCOCCN(Cc3ccc4ccccc4n3)CCOCCOCC2)CCN(CC(=O)[O-])CC1.[Tb+3] [TbL3]
[10]
  inner-sphere coordinated (bound) water molecules, luminescent measurements: only one
  kH2O, absolute emission depopulation rate constant in H2O: 0.50 ms^−1
